# Tests used:
# [1] = system: 5-LO; experiment: Procedure IV: ex vivo eicosanoid synthesis assay using dogs, 5-LO (LTB4); assay type: in vivo; conditions: dog, oral, 5 mg/kg
# Method: (§1) Adult beagle or mongrel dogs (10-15 kg) of either sex were fasted overnight prior to the initiation of each experiment. The forelimb was clipped and swabbed with an alcohol prep (70% isopropanol). Blood was drawn by venipuncture into syringes containing lithium heparin (Starstead, Newton, N.C.) immediately prior to administration of compound or vehicle and then at various intervals following dosing. The test compound was administered orally as a suspension in 0.5% methocel. At various times after dosing, blood samples were drawn and placed on an electric rocker platform to assure complete and continuous mixing. White blood cell (wbc) counts were performed using a Sysmex hematology analyzer. This was done in an effort to normalize the number of leukocytes to be stimulated with calcium ionophore. A 1.0 mL aliquot of whole blood was challenged with 50 μL of a 2.6×10^-5 M solution of calcium ionophore A23187 (Calbiochem, La Jolla, Calif.) prepared in DMSO and diluted in HBSS. After a 15 minute incubation at 37° C., the reaction was stopped by placing the samples in an ice bath (4° C.) for 5 minutes and then centrifuging at 11,000×g for 5 minutes to separate the plasma fraction from blood cells. The plasma fraction was removed, diluted in an appropriate buffer, and analyzed for the presence of LTB4 and TxB2 by standard RIA techniques.
# [2] = system: CO; experiment: Procedure IV: ex vivo eicosanoid synthesis assay using dogs, CO (TxB2); assay type: in vivo; conditions: dog, oral, 5 mg/kg
# Method: as §1
# [3] = biological target: T1, CO (Rattus norvegicus, UniProt Q63921); experiment: Procedure II: CO activity in broken RBL-1 cells (homogenate supernatant); assay type: biochemical; conditions: RBL-1 broken cell supernatant; read-out: Proc. II CO IC50
# T1 construct: the supernatant was saved as the source of enzymes; endogenous in cells; host or cells: RBL-1 (rat basophilic leukemia) cells
# T1 sequence (Q63921 27-602): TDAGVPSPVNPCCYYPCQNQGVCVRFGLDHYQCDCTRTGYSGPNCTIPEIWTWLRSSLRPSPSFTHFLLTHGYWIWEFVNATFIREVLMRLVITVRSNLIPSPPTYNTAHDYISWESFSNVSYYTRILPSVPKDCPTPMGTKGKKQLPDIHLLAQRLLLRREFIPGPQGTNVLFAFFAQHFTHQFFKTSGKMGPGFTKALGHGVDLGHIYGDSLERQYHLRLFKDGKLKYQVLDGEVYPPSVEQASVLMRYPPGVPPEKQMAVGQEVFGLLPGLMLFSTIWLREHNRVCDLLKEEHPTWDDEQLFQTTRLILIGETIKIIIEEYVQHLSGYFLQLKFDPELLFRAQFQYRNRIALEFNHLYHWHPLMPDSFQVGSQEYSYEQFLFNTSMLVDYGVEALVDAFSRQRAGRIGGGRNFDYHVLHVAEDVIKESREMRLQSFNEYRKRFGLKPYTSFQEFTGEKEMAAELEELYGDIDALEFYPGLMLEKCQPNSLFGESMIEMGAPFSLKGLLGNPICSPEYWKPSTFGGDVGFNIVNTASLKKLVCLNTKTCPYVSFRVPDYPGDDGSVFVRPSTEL
# Outline: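 Supernatant from rat RBL-1 homogenate (9,220×g) was pre-incubated 5 min at 37 °C with 2 mM CaCl2 and compound or 1% DMSO, then with 1-^14C-arachidonic acid for 20 min at 37 °C.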
# [4] = biological target: T2, 5-LO (Rattus norvegicus, UniProt P12527); experiment: Procedure III: 5-LO (5-HETE) in intact RBL-1 cells; assay type: cell-based; conditions: calcium ionophore A 23187, read-out: Proc. III 5-LO IC50
# T2 construct: the supernatant was saved as the source of enzymes; endogenous in cells; host or cells: RBL-1 (rat basophilic leukemia) cells
# T2 sequence (P12527 1-673): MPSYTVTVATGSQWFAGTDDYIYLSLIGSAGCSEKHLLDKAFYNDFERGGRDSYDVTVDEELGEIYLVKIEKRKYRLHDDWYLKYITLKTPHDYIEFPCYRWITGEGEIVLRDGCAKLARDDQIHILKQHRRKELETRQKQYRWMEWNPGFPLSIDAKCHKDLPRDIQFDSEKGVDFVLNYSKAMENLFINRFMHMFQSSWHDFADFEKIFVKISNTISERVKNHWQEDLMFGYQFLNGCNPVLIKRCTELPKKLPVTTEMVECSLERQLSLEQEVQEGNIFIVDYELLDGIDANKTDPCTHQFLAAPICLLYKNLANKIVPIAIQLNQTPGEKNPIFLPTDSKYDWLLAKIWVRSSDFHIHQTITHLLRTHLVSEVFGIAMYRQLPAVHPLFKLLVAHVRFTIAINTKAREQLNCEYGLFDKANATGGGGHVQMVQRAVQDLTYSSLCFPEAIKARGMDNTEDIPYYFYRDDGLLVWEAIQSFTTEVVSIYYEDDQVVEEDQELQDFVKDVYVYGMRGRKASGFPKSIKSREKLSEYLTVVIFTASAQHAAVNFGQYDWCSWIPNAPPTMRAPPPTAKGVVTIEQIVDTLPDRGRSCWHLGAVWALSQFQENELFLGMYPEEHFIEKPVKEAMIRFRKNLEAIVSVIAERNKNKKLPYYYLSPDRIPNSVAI
# Outline: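 Intact RBL-1 cells at 1×10^5 cells/mL in HBSS were preincubated with vehicle or drug, pelleted and resuspended, then given 1-^14C-AA. 5-HETE (5-LO) and PgD2 (CO) were separated by TLC after acidification/extraction and quantified by radioimaging; IC50 from regression curve fit.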
compound,measurement,setting,value
"COc1ccc(-n2nc(C#CCN(O)C(N)=O)cc2-c2ccc(C)cc2)cc1 [Cpd 1, N-Hydroxy-N-(1(1-(4-methoxyphenyl)-5-(4-methylphenyl)pyrazol-3-yl)-1-propyn-3-yl)urea]",% inh 5-LO,[1]; 1 h,56%
same,% inh 5-LO,[1]; 2 h,53%
same,% inh 5-LO,[1]; 4 h,32%
same,% inh 5-LO,[1]; 8 h,15%
same,% inh 5-LO,[1]; 24 h,10%
same,% inh CO,[2]; 1 h,86%
same,% inh CO,[2]; 2 h,82%
same,% inh CO,[2]; 4 h,76%
same,% inh CO,[2]; 8 h,46%
same,% inh CO,[2]; 24 h,11%
same,IC50,[3],310 nM
same,IC50,[4],4700 nM

# — patent US5925769A, “Acetylenic 1,5-diarylpyrazoles as antiinflammatory agents” (Ortho Pharmaceutical, Corp., priority 1998, dated 1999)
